# Measured values reported in patent publication US11447638B2, “Acetalanthraquinone derivatives useful for cellular staining” (BIOSTATUS LIMITED, priority 2016, dated 2022).
# Legend:
# MCP1 = assay: Further tests against cell lines, MCP1; assay type: cell-based; settings: ratio to A2780
# Procedure: (§1) Further tests were carried out against A2780, 2780AD and MCP1 cell lines.
# 2780/cp70 = assay: Further tests against cell lines, 2780/cp70; assay type: cell-based; settings: ratio to A2780
# 2780AD = assay: Further tests against cell lines, 2780AD; assay type: cell-based; settings: ratio to A2780
# Procedure: as §1
# U-2 OS cells = assay: Confocal laser scanning microscopy (CLSM) localisation analysis; assay type: cell-based, human; settings: 30 min incubation, Ex 637 nm, Em >665 nm; for subcellular localisation by CLSM: FIG. 4 and 5
# Procedure: Confocal laser scanning microscopy (CLSM) was used to analyse the localisation of compounds BST-100, BST-101 and BST-106 with the U-2 OS cells, as it permitted the acquisition of volume limited optical sections through the cell and media. Excitation (637 nm) and emission (>665 nm) values for the probe analysis were the optimal conditions. The data sets obtained were processed and assembled into a single maximum projection image.
# The patterns were analysed after 30 min incubation at different z depths and eliminating the solution background. The nucleus/cytoplasm ratio was calculated to quantify the localisation of the probe per cell.
# A Radiance CLSM (BioRad Microscience) was used attached to an inverted Nikon microscope. Image acquisition was performed using excitation (637 nm) and emission (>665 nm) wavelengths. The histogram plot reports the nucleus/cytoplasm index to determine DNA binding in live cells. The calibration bar represents 10 μm.
# The compounds BST-108, BST-109 were analysed in the same way.
# [1] = test system: fixed human osteosarcoma U-2 OS cells; assay: Labelling of fixed cells, wide-field fluorescence microscopy; assay type: cell-based; settings: 20 μM, 1 h exposure in PBS, FIG. 2
# Procedure: Cells were seeded in a 24 well coverslip bottomed-plate, cultured overnight in McCoys media. 24 or 48 hours later the cells were washed gently with 3×2 mL PBS per well. The PBS was removed and 0.5 mL of 4% paraformaldehyde solution [a 4% paraformaldehyde solution in PBS was made fresh each time from a 16% stock solution (Thermo Fisher Scientific)] was added in each well and cells were incubated for 30 min. The paraformaldehyde was removed and cells were washed 3×2 mL PBS per well. 1 mL of PBS or HEPES was added to each well.
# (§2) Before analysis, cells were incubated at 37° C. in the dark for the period designated. Samples were analysed directly without any further washing step. For live cell labelling cells were seeded, plated in a similar way, into a similar multi-well dish for optimal optical performance and could be used across all microscope platforms.
# (§3) This basic protocol was the standard for testing the patterns of AAQ agents at 20 μM, compared to 20 μM of DRAQ5 as the benchmark reference (both in terms of cellular location and ability to detect the red fluorescence).
# Low resolution wide-field fluorescence microscopy was used to evaluate cell labelling in fixed human osteosarcoma U-2 OS cells. The system was an Axiovert 100 microscope (Carl Zeiss, Welwyn Garden City, UK) ×10 0.3 NA air objective lens and an ORCA-ER CCD camera (Hamamatsu, Reading, UK). Illumination was controlled by a shutter in front of the transmission lamp. Image capture was controlled using Metamorph software. This evaluates the ability of the compounds to label cellular compartments without active uptake or efflux prohibiting delivery into the given cell. Image collection was performed after 1 h of exposure to probes in PBS. The calibration bar represents 50 μm.
# MCF7 = assay: MTT cellular viability (growth inhibition) assay, MCF7; assay type: cell-based; settings: Homo sapiens, 0.25-100 μM, 72 h, Table 3
# Procedure: (§4) The viability of A549 or MCF7 in response to compounds was determined using the MTT (3-(4,5-dimethylthiazolyl-2-)-2, 5-diphenyltetrazolium bromide) assay according to the protocol set out in Mosmann T., Rapid colorimetric assay for cellular growth and survival: application to proliferation and cytotoxicity assays. Journal of immunological methods 1983; 65:55-63.
# (§5) Initially, cells were seeded into a rounded-bottom 96 well plate (Corning) at six different cell seeding densities (0.5×104, 1×104, 2×104, 3×104, 4×104, and 5×104) per mL of R10 media (cells/mL) in order to optimise the assay and establish the most suitable seeding assay. Concentration of 1×10^4 cells/mL was determined to be the optimum seeding density for both cell lines for 96 h total incubation. A control lane contained supplemented R10 only. The 96 well plates were incubated overnight at 37° C., 5% CO2 and 100% humidity to allow cell adhesion. Cells were then treated respectively with novel AAQs (0.25-100 μM) or growth inhibition (IC50) of compounds of the invention was studied against MCF7 and A549 cancer cell lines. Compounds were tested with a concentration range between 0.25 and 100 μM for 72 h and doxorubicin, as positive cytotoxic control, was tested in parallel at the same doses.
# A549 cells = assay: Flow cytometry analysis of cell uptake before/after hydrolysis; assay type: cell-based, human; settings: 20 μM, 30 min; for % ile (25): low loader cell population
# Procedure: Flow cytometry analysis was performed to evaluate the effect of pre-treatment with HCl to generate an active aldehyde on the cell uptake properties. A549 cells were incubated for 30 min with compounds of Formula (I) and its hydrolysed forms (20 μM) prior to analysis. The rate of uptake was tested in A549 cell culture media and in Aldefluor buffer, containing the MDR-blocker verapamil (Pearce and Bonnet 2007), to evaluate the effect in uptake with/without the Aldefluor assay system. Analysis was conducted in the viable subset of cells, corresponding to ˜95% of the total amount under investigation.
# Aldefluor buffer contained verapamil vs. cell media. The cells were incubated with 20 μM of the respective AAQ/HAAQs (30 min) before analysis
# Statistical analysis of A549 uptake before/after hydrolysis was also studied. Experiments were performed in cell media versus Aldefluor buffer. Data were processed using FlowJo software (Tree Star). DRAQ5 was used to set the dynamic range and as control dye and empty cells were used to determine auto-fluorescence.
# A549 = assay: MTT cellular viability (growth inhibition) assay, A549; assay type: cell-based; settings: Homo sapiens, 0.25-100 μM, 72 h, Table 3
# Procedure: as §4, §5
# [2] = Absorption and fluorescence spectra of compounds in PBS or HEPES; assay type: physicochemical; settings: for peak excitation wavelength: excitation wavelength used for fluorescence spectra of FIG. 1A/1B; for fluorescence emission, 540 nm (Ex in PBS): excited at 540 nm; for fluorescence emission, 540 nm (Ex in PBS) / fluorescence emission, λ1 nm (Ex in HEPES) / fluorescence emission, λ1 nm (Ex in PBS): 20 μM; for fluorescence emission, λ1 nm (Ex in HEPES) / fluorescence emission, λ1 nm (Ex in PBS): excited at absorption peak 1 (λ1)
# Procedure: The compounds were exited at 540 nm and at the wavelength of their absorption peak 1 (λ1 nm). The far-red fluorescent DNA dye DRAQ5 was used as reference.
# Compounds were dissolved in DMSO (Sigma) to 20 mM stock concentration. DRAQ5 (Biostatus Ltd) was used as a control anthraquinone agent dissolved in deionised water. Working solutions were prepared in PBS (phosphate buffered saline; Sigma) or HEPES (4-(2-hydroxyethyl)-1-piperazineethanesulfonic acid; Sigma) at 20 or 40 μM. Probe solutions (20 μM), respectively in PBS or HEPES, were pipetted into a 1 mL quartz cuvette (Thermo Fisher Scientific). After obtaining baseline spectra in relevant buffer to zero the instrument, absorbance measurements were obtained using a Beckmann Coulter DU 800 UV/Visible spectrophotometer. The excitation wavelengths were scanned from 280 to 800 nm. Fluorescent spectral scans were performed using a Perkin Elmer LS-50B Luminescence spectrophotometer. To obtain emission scans, the excitation wavelength was set accordingly to the maximum values for each agent or another designated excitation wavelength that matches typical laser lines; and the emission wavelength were scanned from 400 nm to 900 nm in 1 nm increments. A Xenon flash lamp was used as the light source, with the lamp energy set to high. For each data point ten measurements were acquired with the photomultiplier tube sensitivity set at 125.
# Compounds were excited at a wavelength corresponding to the first absorbance peak 1 (FIG. 1A and FIG. 1B show absorption (line) and fluorescence (dots) spectra of compounds; both are normalised to peak value.
# A549 live cells = assay: Loading of A549 live cells, wide-field fluorescence microscopy; assay type: cell-based, human; settings: 20 μM, 30 min incubation, FIG. 3
# Procedure: as §2, §3
# Low resolution wide-field fluorescence microscopy was used to evaluate cell uptake and localisation of the probe compounds. The system was an Axiovert 100 microscope (Carl Zeiss, Welwyn Garden City, UK) ×10 0.3 NA air objective lens and an ORCA-ER CCD camera (Hamamatsu, Reading, UK). Illumination was controlled by a shutter in front of the transmission lamp. Image capture was controlled using Metamorph software. Human non-small cell lung cancer A549 cell line was used as the cell model to determine whether variation of the probe loading and localisation occurred in cell population sustaining a “side population” (SP) (Smith P J, Wiltshire M, Chappell S C, Cosentino L, Burns P A, Pors K, Errington R J. Kinetic analysis of intracellular Hoechst 33342—DNA interactions by flow cytometry: misinterpretation of side population status? Cytometry A 2013; 83:161-9) with a known capacity to efflux xenobiotic molecules, including the DNA dye Hoechst 33342.
# Cells were incubated for 30 min with each compound and then images were collected at a 30 ms exposure time using low resolution wide-field fluorescence microscopy. Using an Axiovert 100 microscope (Carl Zeiss, Welwyn Garden City, UK) ×10 0.3 NA air objective lens and an ORCA-ER CCD camera (Hamamatsu, Reading, UK). Illumination was controlled by a shutter in front of the transmission lamp. Image capture was controlled using Metamorph software. The calibration bar represents 50 μm.
# [3] = solution: Aldefluor buffer with verapamil
compound,measurement,setting,value
"COC(CNCCCCNc1ccc(NCCN(C)C)c2c1C(=O)c1c(O)ccc(O)c1C2=O)OC [BST-304, 1-((4-((2,2-dimethoxyethyl)amino)butyl)amino)-4-((2-(dimethylamino)ethyl)amino)-5,8-dihydroxyanthracene-9,10-dione]",RF (MCP1),MCP1,0.36
same,RF (2780/cp70),2780/cp70,0.07
same,RF (2780AD),2780AD,11.8
"N.N.[Cl][Pt][Cl] [Cisplatin, reference compound]",RF (MCP1),MCP1,1.26
same,RF (2780/cp70),2780/cp70,5.37
same,RF (2780AD),2780AD,4.6
"COC(CNCCCCCNc1ccc(NCCN(C)C)c2c1C(=O)c1c(O)ccc(O)c1C2=O)OC [BST-305, 1-((5-((2,2-dimethoxyethyl)amino)pentyl)amino)-4-((2-(dimethylamino)ethyl)amino)-5,8-dihydroxyanthracene-9,10-dione]",RF (MCP1),MCP1,0.53
same,RF (2780/cp70),2780/cp70,0.14
same,RF (2780AD),2780AD,5.2
"COC(CNCCCNc1ccc(NCCN(C)C)c2c1C(=O)c1c(O)ccc(O)c1C2=O)OC [BST-303, 1-((3-((2,2-dimethoxyethyl)amino)propyl)amino)-4-((2-(dimethylamino)ethyl)amino)-5,8-dihydroxyanthracene-9,10-dione]",RF (MCP1),MCP1,0.36
same,RF (2780/cp70),2780/cp70,0.19
same,RF (2780AD),2780AD,9.7
"COC(CNCCNc1ccc(NCCN(C)C)c2c1C(=O)c1c(O)ccc(O)c1C2=O)OC [BST-302, 1-((2-((2,2-dimethoxyethyl)amino)ethyl)amino)-4-((2-(dimethylamino)ethyl)amino)-5,8-dihydroxyanthracene-9,10-dione]",RF (MCP1),MCP1,0.61
same,RF (2780/cp70),2780/cp70,0.32
same,RF (2780AD),2780AD,81.4
COC(CNCCCCCCNc1ccc(NCCCCCCNCC(OC)OC)c2c1C(=O)c1c(O)ccc(O)c1C2=O)OC [BST-300],RF (MCP1),MCP1,0.37
same,RF (2780/cp70),2780/cp70,0.17
same,RF (2780AD),2780AD,1.07
"COC(CC(=O)NCCNc1ccc(NCCN(C)C)c2c1C(=O)c1c(O)ccc(O)c1C2=O)OC [BST-111, N-(2-(4-(2-(Dimethylamino)ethylamino)-5,8-dihydroxy-9,10-dioxo-9,10-dihydroanthracen-1-ylamino)ethyl)-3,3-dimethoxypropanamide]",specific feature of localisation by CLSM,U-2 OS cells,mainly loaded in the nuclear compartment
same,subcellular localisation by CLSM,U-2 OS cells,"strong nuclear uptake and perinuclear staining, with possible ER accumulation"
same,fluorescence brightness / background in fixed cells,[1],very high background fluorescence
same,staining pattern in fixed cells,[1],cytoplasmic staining and heterogeneity on labelling of mitotic figures
same,IC50,MCF7,1800 nM
same,"Median (fluorescence, uptake)",A549 cells; [3],74.94
same,% ile (25),A549 cells; [3],64.64
same,"Median (fluorescence, uptake)",A549 cells; solution: media,72.42
same,% ile (25),A549 cells; solution: media,62.72
same,IC50,A549,38200 nM
same,peak excitation wavelength,[2],610 nm
same,"fluorescence emission, 540 nm (Ex in PBS)",[2],684 nm
same,"fluorescence emission, λ1 nm (Ex in HEPES)",[2],684 nm
same,"fluorescence emission, λ1 nm (Ex in PBS)",[2],684 nm
same,staining pattern in live cells,A549 live cells,greater contrast and diffuse cellular staining
"COC(CNC(=O)CCNc1ccc(NCCN(C)C)c2c1C(=O)c1c(O)ccc(O)c1C2=O)OC [BST-108, N-(2,2-Dimethoxyethyl)-3-(4-(2-(dimethylamino)ethylamino)-5,8-dihydroxy-9,10-dioxo-9,10-dihydroanthracen-1-ylamino)propanamide]",subcellular localisation by CLSM,U-2 OS cells,"strong nuclear uptake and perinuclear staining, with possible ER accumulation"
same,staining pattern in fixed cells,[1],heterogeneity in cytoplasmic staining and positive spots in the nuclei
same,IC50,MCF7,1440 nM
same,"Median (fluorescence, uptake)",A549 cells; [3],67.08
same,% ile (25),A549 cells; [3],57.65
same,"Median (fluorescence, uptake)",A549 cells; solution: media,75.48
same,% ile (25),A549 cells; solution: media,65.32
same,IC50,A549,1700 nM
same,peak excitation wavelength,[2],610 nm
same,"fluorescence emission, 540 nm (Ex in PBS)",[2],692 nm
same,"fluorescence emission, λ1 nm (Ex in HEPES)",[2],684 nm
same,"fluorescence emission, λ1 nm (Ex in PBS)",[2],685 nm
same,fluorescence brightness / background in live cells,A549 live cells,very bright cellular fluorescence
